In one assay the test system is HUVEC endothelial cells. The assay is described as follows: IL-6 and IL-8 ELISA of HUVEC endothelial cells treated with sCAR. It is filed as cell-based, human. Conditions: sCAR stimulation, 24 hours; concentrations of Table 2. On the procedure: In like manner and also in Example 3 below, sCAR (or smCAR) is added to endothelial (HUVEC) cells, available from the American Type Culture Collection, and using an equivalent protocol to the treatment of THP-1 cells (but with individually optimised conditions, such as the concentration of sCAR used), following which IL-6 release and IL-8 release are observed. Pro-inflammatory cytokines IL-6 and IL-8 are measured using an enzyme-linked immunosorbent assay (ELISA) and IL-6, ICAM1 and VCAM1 are measured by quantitative PCR (QPCR, for which a kit is suitably obtainable from Thermo Fisher Scientific of Kingfisher Dr, Swindon SN3 5BZ, UK).
sCAR (or smCAR), produced as described in Example 1 above, is added to a monoculture of HUVEC endothelial cells in the presence of UR-13870, Ralimetinib or Acumapimod at each of the concentrations shown in Table 2 above, at 37° C., 5% CO2 and a suitably humid environment for 24 hours.
Supernatant levels of IL-6 and IL-8 from the HUVEC endothelial cell monoculture with sCAR (or smCAR) are determined by ELISA.
(ELISA stands for enzyme-linked immunosorbent assay.)

Assay [1] has as its system PBMC humanized NSG-MHC I/II double knock-out mice with Raji-Luc CD19-expressing cancer cells. Put plainly: In vivo (murine) model using anti-CD28 antibody for CRS induction. On the set-up: species or system mouse. An excerpt:
An outline of the timeline of the model is provided in FIG. 19; it commences on Study Day 0 and ends on Study Day 10. […] It thus models the effect of administering a p38 MAP kinase inhibitor prior to the onset of CRS in accordance with the present disclosure.
Anti-CD28 antibody acts as a super-agonist of T cells (i.e., strongly activates T cells) resulting in T cell-mediated tumour cell death, with a rapid consequent release of cytokines and knock-on effects for monocytes and endothelial cells; thus modelling CRS induced by various different types of T cell-involving cancer immunotherapy.
Thus, on Study Day 0, 30 female 6- to 8-week-old NSG-(KbDb)null (IA)null mice are irradiated at 100 cGy. Approximately 4 hours later, on the same day (Study Day 0) all mice are humanised by IV dosing with 15×10^6 human peripheral blood mononuclear cells (PBMCs).
On Study Day 5, all mice are intravenously dosed with 0.25×10^6 Raji-Luc CD19-expressing cancer cells (a Raji wild-type cell line with stable and high expression of luciferase, enabling detection of cancer burden by […]). Approximately 4 hours later, mice are imaged using in vivo […] imaging (IVIS). For IVIS, mice are IP injected with 150 mg/kg D-Luciferin. 10 minutes after the D-Luciferin injection, mice are imaged dorsal and ventral; auto exposure) using an IVIS Lumina system (obtainable from PerkinElmer of Chalfont Road. Seer Green, Beaconsfield, HP9 2FX, UK). Regions of interest (ROI) are drawn for each mouse to capture its whole body, and total flux (p/s) is reported. Tumour burden continues to be monitored by IVIS twice per week, starting on Study Day 5, until the end of the study. Daily clinical observation continues throughout the study, including observation of CRS, CRS being scored as follows:
On Study Day 6, 25 of the 30 mice are treated with 1 mg/kg anti-CD28.
As a control, a group consisting of the 5 remaining mice (“Group 1”) are not administered anti-CD28. Beginning on Study Day 4 and ending on Study Day 10, Group 1 receive treatment with 0.5% (w:v) HPMC, 0.1% (w:v) Tween 80 in sWFI (vehicle/control), administered BID at 5 mL/kg.
The 25 mice administered anti-CD28 are divided into groups of 5 mice per group. Administration of a control drug (Humira), vehicle or UR-13870 is carried out in accordance with the following protocol: • Group 2—Vehicle only, BID, beginning on Study Day 4 and ending on Study Day 10; • Group 3—UR-13870 (formulated in vehicle), 2 mg/kg, twice daily (BID) beginning on Study Day 4 and ending on Study Day 10; • Group 4—UR-13870 (formulated in vehicle), 10 mg/kg, twice daily (BID) beginning on Study Day 4 and ending on Study Day 10; • Group 5—UR-13870 (formulated in vehicle), 25 mg/kg, twice daily (BID) beginning on Study Day 4 and ending on Study Day 10; and • Group 6—Humira (formulated in PBS) (further, positive control) 5 mg/kg, once daily beginning on Study Day 4 and ending on Study Day 10.
Dosing of UR-13870 or vehicle is by subcutaneous injection. Subcutaneous injection sites are rotated for each dose (rotating among right flank, left flank, right inguinal region, left inguinal region). For UR-13870 and vehicle, AM and PM (BID) doses are scheduled at least 6 hours apart. Dosing of Humira is by intraperitoneal injection.
On Study Days 6, 9 and 10, blood is collected from each of the 30 mice in Groups 1-6 (a 50-200 μl blood sample from each mouse, each time), for flow cytometry analysis, including analysis of CD19+ cancer cells per ml; and cytokine measurement. It should be noted that, where relevant to BID dosed groups, blood collection is carried out between AM and PM dosing.
All mice in Groups 1-6 are euthanized by CO2 asphyxiation on Study Day 10. […]

The structures appear in SMILES notation.

Take `OCCCn1cc2c(-c3ccc(F)cc3)c(-c3ccncc3)c(-c3ccc(F)cc3)nc2n1` [UR-13870, 6-bis(4-fluorophenyl)-5-(4-pyridinyl)-2Hpyrazolo[3,4-b]pyridine-2-propanol]: in the assay on HUVEC endothelial cells, the “IL-6 secretion by HUVEC cells” value is “significantly reduce” and the “IL-8 supernatant level, HUVEC cells” value is recorded as “reduced”. Moreover, the “tumour cell proliferation (tumour burden by IVIS)” value in assay [1] (Day 5 to Day 7) was “does not increase”. Besides, in assay [1] (Day 5 to Day 7, tumour burden by IVIS), the “T cell mediated cancer cell death” value is listed as “maintains”. In addition, the CRS scores result in assay [1] (anti-CD28 1 mg/kg, UR-13870 2, 10, 25 mg/kg BID s.c., Humira 5 mg/kg once daily i.p., Study Day 4 to 10) is recorded as “significantly reduces”. In assay [1] (blood serum, Luminex), the IFNγ result is recorded as “reduced”, the IL-2 result was “reduced”, the IL-4 entry was “reduced” and the IL-6 result was “reduced”. For the same molecule, in assay [1] (blood serum, Luminex), the IL-8 entry is “reduced”, the IL-10 result is recorded as “reduced”, the MIP-1α result was “reduced” and the TNF a result is on record as “reduced”. For the same molecule, in assay [1] (blood, day 9), the “hCD45+ CD3+ hCD4+ cells/μl” value is “Neither UR-13870 or Humira had a significant impact”. In assay [1] (blood, days 9 and 10), the “hCD45+ cells/μl” value is given as “Neither UR-13870 or Humira had a significant impact” and the “hCD45+ hCD3+ cells/μl” value is on record as “Neither UR-13870 or Humira had a significant impact”. The “proliferation of tumour cells (counts of CD19+ cancer cells per ml)” value in assay [1] (blood, flow cytometry) is recorded as “neither UR-13870 or Humira increased proliferation of tumour cells”. Also, in assay [1] (days 9 and 10 (especially day 10)), the “mean CD19+ cancer cells per ml compared to CD28 stimulation only” value is reported as “downward trend”.

The values above are taken from patent US20260115177A1, “MEDICINAL PRODUCTS AND METHODS FOR THE ALLEVIATION OF CANCER IMMUNOTHERA-PY-ASSOCIATED CYTOKINE RELEASE SYNDROME” (POOLBEG PHARMA (UK) LIMITED, priority 2023, published 2026).
